One data set concerns Pim-1. As to conditions: Figure 1; cited from earlier work.
A further data set deals with Pim-2. To be noted: Figure 1; cited from earlier work.
Another data set has as its system K562 cells. Kind of data set: MTT cell proliferation assay. The format is cell-based. To be noted: Homo sapiens, 48 h, mean ± SEM. An excerpt: (§1) Various types of hematological malignancies were selected for in vitro testing: the human acute myeloid leukemia (AML) cell line MV4-11, and the human chronic myeloid leukemia (CML) cell lines KU812 and K562. Indeed, Pim kinases are overexpressed in a wide range of hematopoietic malignancies. Solid tumors were also included in the panel of tested cell lines: MCF-7 (human breast adenocarcinoma), HT-29 (human colon adenocarcinoma), and HeLa (human cervical cancer) cells. Cytotoxic effects were evaluated using an MTT assay, and living cells were also counted with the trypan blue dye exclusion method for MV4-11, KU812, and K562 cells.
(§2) MV4-11, K562, and KU812 cell lines were obtained from the Deutshe Sammlung von Mikroorganismens und Zellkulturen (DSMZ) and maintained according to the supplier’s recommendations. All cell lines were cultured in RPMI, with 10% fetal bovine serum, 1% glutamine, and 1% penicillin/ streptomycin at 37 °C and 5% CO2.
(§3) MV4-11, K562, and KU812 cells’ viability was studied using a MTT cell proliferation assay.
(§4) MV4-11, K562, and KU812 cells were incubated with 10 μL of MTT working solution (5 g/L of methylthiazolyldiphenyl-tetrazolium bromide from Sigma Aldrich, Lyon, France) for 4 h. Cells were then lysed overnight at 37 °C with 100 μL of 10% SDS and 0.003% HCl. Optical density (OD) at 570 nm was measured using a spectrophotometer CLARIOstar® (BMG Labtech, Offenburg, Germany). Living cells were also counted with the trypan blue dye exclusion method. […] Data were collected from at least three independent experiments and the values reported are means ± standard errors of the mean (SEM).
A general note: Tetrazolium dyes change colour on reduction, which living cells bring about.

In a further data set the test system is KU812 cells. Description: MTT cell proliferation assay. The data set is classed as cell-based. To be noted: Homo sapiens, 48 h, mean ± SEM.
Text: as §1, §2, §3, §4

Another data set has as its target T1, HsCDK9/CyclinT (Homo sapiens, UniProt P50750).
T1 construct: made in house; host or cells: Sf9 insect cells (baculovirus, pFastBac)
Kind of data set: Kinase assay, luminescent ADP-Glo, 10 µM ATP. The format is biochemical. As to conditions: duplicate, read-out: Kinase Enzymatic IC50 CDK9/CyclinT. The procedure: (§5) The synthesized compounds were tested using a luminescence-based assay against a panel of nine kinases: Pim-1, Pim-2, CDK5/p25, CDK9/CyclinT, Haspin, CK1ε, and GSK3β (from human); DYRK1A (from Rattus norvegicus); and CLK1 (from Mus musculus).
(§6) Kinase enzymatic activities were assayed with 10 µM ATP in 384-well plates using the luminescent ADP-Glo^TM assay (Promega, Madison, WI, USA) according to the recommendations of the manufacturer (see [56] for details on this method). The transmitted signal was measured using the Envision (PerkinElmer, Waltham, MA, USA) microplate luminometer and expressed in relative light unit (RLU). In order to determine the half maximal inhibitory concentration (IC50), the assays were performed in duplicate in the absence or presence of increasing doses of the tested compounds. GraphPad Prism6 software (GraphPad Software, San Diego, CA, USA) was used to fit dose–response curves and to determine the IC50 values. Kinase activities are expressed in % of maximal activity, i.e., measured in the absence of inhibitor. Peptide substrates were obtained from Proteogenix (Schiltigheim, France).
(§7) For kinases expressed in bacteria, the Escherichia coli BL21 DE3 pLysS strain (Invitrogen, ThermoFisher Scientific, Waltham, MA, USA) was transformed with pGEX-2T-1 (Sigma-Aldrich, St. Louis, MO, USA) containing the coding region of the corresponding kinase. For kinases expressed in Sf9 insect cells, the coding region of the corresponding kinase was cloned in pFastBac^TM vector. Purification of the recombinant kinases was performed following the protocol “Bac-to-Bac® Baculovirus Expression System” provided by the manufacturer (Invitrogen, ThermoFisher Scientific, Waltham, MA, USA).
(§8) To validate the kinase assay, model inhibitors were used for each tested enzyme: Staurosporine from Streptomyces sp. (#S5921, purity ≥ 95%, Sigma-Aldrich) for HsCK1ε; Indirubin-30-oxime (#I0404, purity ≥ 98%, Sigma-Aldrich) for HsGSK-3β, HsPim-1 and 2, human cyclin-dependent kinases, RnDYRK1A and MmCLK1; CHR-6494 (#SML0648, purity ≥ 98%, Sigma-Aldrich) for Haspin.

Another data set deals with T2, MmCLK1 (Mus musculus, UniProt P22518).
T2 construct: made in house; host or cells: Escherichia coli BL21 DE3 pLysS
T2 sequence (P22518 whole entry): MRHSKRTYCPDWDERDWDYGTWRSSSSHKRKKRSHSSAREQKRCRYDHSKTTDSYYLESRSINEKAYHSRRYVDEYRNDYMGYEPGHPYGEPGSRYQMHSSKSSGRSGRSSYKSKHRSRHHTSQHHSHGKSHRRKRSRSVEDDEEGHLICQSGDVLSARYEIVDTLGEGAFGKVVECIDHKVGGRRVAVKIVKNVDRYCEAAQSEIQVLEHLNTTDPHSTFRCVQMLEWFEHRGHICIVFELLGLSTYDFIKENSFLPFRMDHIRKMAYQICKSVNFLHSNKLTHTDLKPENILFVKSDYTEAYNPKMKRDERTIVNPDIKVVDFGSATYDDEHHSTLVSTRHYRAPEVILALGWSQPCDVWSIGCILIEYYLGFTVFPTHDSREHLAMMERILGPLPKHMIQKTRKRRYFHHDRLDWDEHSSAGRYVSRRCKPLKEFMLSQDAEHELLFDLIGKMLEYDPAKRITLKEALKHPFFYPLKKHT
Kind of data set: Kinase assay, luminescent ADP-Glo, 10 µM ATP. As to conditions: for IC50: ADP-Glo, 10 µM ATP, duplicate, read-out: Kinase Enzymatic IC50 CLK1. The data set is classed as biochemical. The method, then:
as §5, §6, §7, §8
(In general: ADP-Glo turns the ADP formed in a reaction into a luminescent signal.)

Another data set concerns the target T3, HsPim-1 (Homo sapiens, UniProt P11309).
T3 construct: made in house; host or cells: Escherichia coli BL21 DE3 pLysS
Description: Kinase assay, luminescent ADP-Glo, 10 µM ATP. The format is biochemical. The procedure: as §5, §6, §7, §8

Another data set has as its target T4, HsCDK5/p25 (Homo sapiens, UniProt Q00535).
T4 construct: made in house; host or cells: Escherichia coli BL21 DE3 pLysS
Kind of data set: Kinase assay, luminescent ADP-Glo, 10 µM ATP. The format is biochemical. As to conditions: duplicate, read-out: Kinase Enzymatic IC50 CDK5/p25. The procedure: as §5, §6, §7, §8

The target in a further data set is T5, HsPim-2 (Homo sapiens, UniProt Q9P1W9).
T5 construct: made in house; host or cells: Escherichia coli BL21 DE3 pLysS
T5 sequence (Q9P1W9 whole entry): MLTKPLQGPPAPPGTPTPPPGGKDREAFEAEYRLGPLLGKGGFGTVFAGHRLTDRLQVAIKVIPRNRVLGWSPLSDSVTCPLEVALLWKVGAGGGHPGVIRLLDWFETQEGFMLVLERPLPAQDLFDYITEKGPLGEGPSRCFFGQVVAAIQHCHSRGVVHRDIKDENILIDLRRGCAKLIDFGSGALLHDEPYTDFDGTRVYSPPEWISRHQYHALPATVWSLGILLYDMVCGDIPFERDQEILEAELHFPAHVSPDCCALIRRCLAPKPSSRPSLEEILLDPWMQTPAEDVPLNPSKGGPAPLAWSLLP
Description: Kinase assay, luminescent ADP-Glo, 10 µM ATP. The data set is classed as biochemical. To be noted: mean of n ≥ 3, read-out: IC50 Pim-2. The method, then: as §5, §6, §7, §8

In a further data set the test system is CaPkc1. Details: method as in PMID 20865172. To be noted: ATP-competitive; cited from earlier work.
Another data set concerns MV4-11 cells. Kind of data set: MTT cell proliferation assay. To be noted: Homo sapiens, MV4-11, 48 h, mean ± SEM. The format is cell-based, human.
Text: as §1, §2, §3, §4

In a further data set the test system is HeLa cells. Description: MTT cytotoxicity assay. The data set is classed as cell-based. To be noted: Homo sapiens, 72 h.
Text: as §1
(§9) The cancer cell lines MCF-7, HT-29, and HeLa were obtained from Cell Bank of Rio de Janeiro, Brazil, and were grown in RPMI-1640 medium and L929 cells were grown in Dulbecco’s Modified Eagle’s Medium (DMEM). Both media were supplemented with fetal bovine serum (FBS) (10% of the final concentration) followed by treatment with penicillin and streptomycin as antibiotics (1% of the final concentration). The crude was incubated in the presence of CO2 atmosphere (5%) for 24 h with the temperature monitored and maintained at 37 °C.
(§10) MCF-7, HT-29, HeLa, and L929 cells (3×10^5 cells/mL) were plated in 96-well plates and incubated in the presence of CO2 atmosphere (5%) for 24 h at 37 °C. […] Then, 25 μL of MTT (5 mg/mL in PBS) were added to each well and the plates were left for another 3 h in the incubator at 37 °C and at the end of this period, the supernatant was aspirated. To perform the reading, 100 μL of dimethylsulfoxide (DMSO) were added in each well for the dissolution of the formazan crystals. The amount of formazan was measured by reading the plate at 560 nm absorbance. […] Each sample was tested in triplicate in two independent experiments.

Another data set concerns MCF-7 cells. Kind of data set: MTT cytotoxicity assay. The data set is classed as cell-based. As to conditions: Homo sapiens, MCF7, 72 h.
Text: as §1, §9, §10

Another data set concerns HT-29 cells. Description: MTT cytotoxicity assay. The format is cell-based. To be noted: Homo sapiens, 72 h.
Text: as §1, §9, §10

A further data set concerns the target RnDYRK1A-kd (Rattus norvegicus, UniProt Q63470). Kind of data set: Kinase assay, luminescent ADP-Glo, 10 µM ATP. The data set is classed as biochemical. As to conditions: read-out: IC50 DYRK1A. The method, then: as §5, §6, §7, §8
A further data set relates to L929 cells. Kind of data set: MTT assay, in vitro toxicity on normal cells. The format is cell-based. To be noted: 72 h, normal mouse fibroblasts.
Text: as §1, §9, §10

The target in the next data set is T6, HsCK1ε (Homo sapiens, UniProt P49674).
T6 construct: made in house; host or cells: Sf9 insect cells (baculovirus, pFastBac)
T6 sequence (P49674 whole entry): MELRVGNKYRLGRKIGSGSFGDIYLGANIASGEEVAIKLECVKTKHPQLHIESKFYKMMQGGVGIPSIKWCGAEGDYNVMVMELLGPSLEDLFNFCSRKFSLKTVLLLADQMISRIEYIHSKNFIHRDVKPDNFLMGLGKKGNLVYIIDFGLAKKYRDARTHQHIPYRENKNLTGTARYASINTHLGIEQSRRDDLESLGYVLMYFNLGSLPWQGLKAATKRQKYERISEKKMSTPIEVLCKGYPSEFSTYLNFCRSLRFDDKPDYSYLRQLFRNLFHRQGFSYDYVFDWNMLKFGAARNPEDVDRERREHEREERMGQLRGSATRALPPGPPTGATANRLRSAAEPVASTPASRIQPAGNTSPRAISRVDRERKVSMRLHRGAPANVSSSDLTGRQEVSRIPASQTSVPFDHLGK
Description: Kinase assay, luminescent ADP-Glo, 10 µM ATP. The format is biochemical. To be noted: read-out: IC50 CK1. The procedure: as §5, §6, §7, §8

Setting [1] is: Table 1, ADP-Glo, 10 µM ATP, duplicate, read-out: Kinase Enzymatic IC50 Pim-1.
[2] abbreviates: Table 2, ADP-Glo, 10 µM ATP, mean of n ≥ 3, read-out: IC50 Pim-1.

Values joined by “and” are separate entries in the source; they are usually repeats but may differ in a detail not shown here. Equal entries are not always repeated. Where two headings read alike, the source gives them in different places. Bounds are passed on as bounds.

T3 sequence (P11309 whole entry): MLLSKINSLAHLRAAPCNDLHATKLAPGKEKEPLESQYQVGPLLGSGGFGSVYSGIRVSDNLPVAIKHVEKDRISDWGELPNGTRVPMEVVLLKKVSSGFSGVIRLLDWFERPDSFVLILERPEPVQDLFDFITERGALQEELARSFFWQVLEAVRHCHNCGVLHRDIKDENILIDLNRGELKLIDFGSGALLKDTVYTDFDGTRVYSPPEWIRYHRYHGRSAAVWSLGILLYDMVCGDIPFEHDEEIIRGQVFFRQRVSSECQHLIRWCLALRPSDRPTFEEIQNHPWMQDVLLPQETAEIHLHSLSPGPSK
T1 sequence (P50750 whole entry): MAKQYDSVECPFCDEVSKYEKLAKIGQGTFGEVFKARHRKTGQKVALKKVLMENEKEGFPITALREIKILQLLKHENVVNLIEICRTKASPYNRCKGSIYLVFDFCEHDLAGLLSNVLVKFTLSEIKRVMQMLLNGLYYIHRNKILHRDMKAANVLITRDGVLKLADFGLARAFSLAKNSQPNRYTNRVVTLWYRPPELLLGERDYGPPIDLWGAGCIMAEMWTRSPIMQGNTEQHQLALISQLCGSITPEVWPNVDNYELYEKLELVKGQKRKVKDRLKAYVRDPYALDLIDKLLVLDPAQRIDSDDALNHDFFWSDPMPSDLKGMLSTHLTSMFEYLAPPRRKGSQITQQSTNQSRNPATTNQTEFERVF
T1 sequence (O60563 whole entry partner): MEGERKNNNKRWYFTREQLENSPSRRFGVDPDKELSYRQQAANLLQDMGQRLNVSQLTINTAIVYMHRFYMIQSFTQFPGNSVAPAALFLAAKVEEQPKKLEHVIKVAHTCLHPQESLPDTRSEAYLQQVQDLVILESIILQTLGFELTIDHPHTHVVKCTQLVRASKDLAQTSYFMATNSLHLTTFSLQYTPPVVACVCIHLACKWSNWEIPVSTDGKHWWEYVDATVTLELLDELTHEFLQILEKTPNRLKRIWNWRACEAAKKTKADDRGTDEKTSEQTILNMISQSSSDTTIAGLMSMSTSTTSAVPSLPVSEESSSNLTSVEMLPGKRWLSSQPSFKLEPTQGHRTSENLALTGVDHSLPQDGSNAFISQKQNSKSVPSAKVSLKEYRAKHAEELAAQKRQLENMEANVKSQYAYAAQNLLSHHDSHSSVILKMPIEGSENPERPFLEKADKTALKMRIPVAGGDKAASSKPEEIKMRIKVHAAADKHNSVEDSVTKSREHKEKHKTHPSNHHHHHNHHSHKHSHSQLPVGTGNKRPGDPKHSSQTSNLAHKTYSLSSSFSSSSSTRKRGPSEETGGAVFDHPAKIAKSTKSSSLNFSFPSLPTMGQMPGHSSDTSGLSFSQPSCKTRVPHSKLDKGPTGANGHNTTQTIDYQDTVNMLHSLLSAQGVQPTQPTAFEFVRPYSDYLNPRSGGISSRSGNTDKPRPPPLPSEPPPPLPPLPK
T4 sequence (Q00535 whole entry): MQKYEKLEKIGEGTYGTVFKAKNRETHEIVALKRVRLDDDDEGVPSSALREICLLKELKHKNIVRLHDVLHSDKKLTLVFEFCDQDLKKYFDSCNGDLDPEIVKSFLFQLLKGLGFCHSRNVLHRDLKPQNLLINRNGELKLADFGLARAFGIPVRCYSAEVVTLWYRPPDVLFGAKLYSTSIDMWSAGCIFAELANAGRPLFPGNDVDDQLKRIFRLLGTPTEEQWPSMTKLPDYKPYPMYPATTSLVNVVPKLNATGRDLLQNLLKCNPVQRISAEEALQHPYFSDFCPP
T4 sequence (Q15078 99-307 partner limits assumed): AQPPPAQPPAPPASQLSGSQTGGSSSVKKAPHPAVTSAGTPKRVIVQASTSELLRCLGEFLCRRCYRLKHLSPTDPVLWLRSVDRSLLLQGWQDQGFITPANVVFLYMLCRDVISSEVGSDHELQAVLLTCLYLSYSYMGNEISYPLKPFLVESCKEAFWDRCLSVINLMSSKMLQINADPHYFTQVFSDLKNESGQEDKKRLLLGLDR

With `CC(=O)C1=C(O)C=C2Oc3c(C(C)=O)c(O)c(C)c(O)c3[C@@]2(C)C1=O` [(+)-Usnic acid], the IC50 is 210 nM in the data set on Pim-1 and 580 nM in the data set with Pim-2.

With `CC(=O)C1=C(O)C=C2Oc3c(C(N)=O)c(O)cc(O)c3[C@]2(C)C1=O` [Cerco, Cercosporamide], the IC50 with K562 cells was over 100000 nM; in the data set on KU812 cells, over 100000 nM; at HsCDK9/CyclinT it was 220 nM; on MmCLK1 it was over 10000 nM; on HsPim-1 (setting [1]) it was 730 nM; on HsPim-1 (setting [2]), 730 nM. Also, the IC50 at HsPim-1 (printed in Figure 1, no reference given, read-out: Pim-1 IC50 (Figure 1)) is 732 nM; at HsCDK5/p25 it was 5600 nM; at HsPim-2 it was 1430 nM; in the data set on CaPkc1 it was 44 nM; in the data set on MV4-11 cells it was 31500 ± 4700 nM; in the data set with HeLa cells, 7500 ± 3100 nM. The figures for the IC50 in the data set with MCF-7 cells and in the data set on HT-29 cells were 44300 ± 2100 nM and 10400 nM, respectively.

`COc1cc(OC)c2c(oc3ccc(F)cc32)c1C(N)=O` [Compound 41, 8-Fluoro-1,3-dimethoxydibenzo[b,d]furan-4-carboxamide] registered a melting point of 230 to 231 °C. In addition, at HsPim-1 (setting [1]), the IC50 is over 10000 nM. In addition, the IC50 on RnDYRK1A-kd was 1330 nM.

As to `CC(=O)c1ccc2oc3c(C(N)=O)c(O)cc(O)c3c2c1` [Compound 45, 8-Acetyl-1,3-dihydroxydibenzo[b,d]furan-4-carboxamide], the IC50 in the data set with K562 cells was over 100000 nM; in the data set on KU812 cells it was 69400 ± 12900 nM; at HsCDK9/CyclinT, over 10000 nM; at MmCLK1 it was 140 nM; on HsPim-1 (setting [1]) it was 280 nM; at HsPim-1 (setting [2]) it was 280 nM. For the same compound, the IC50 is over 10000 nM on HsCDK5/p25; 120 nM at HsPim-2; 8800 ± 900 nM in the data set on MV4-11 cells; 59600 ± 7600 nM with HeLa cells; over 100000 nM in the data set on MCF-7 cells; over 100000 nM in the data set on L929 cells. In addition, on MmCLK1 (ratio of IC50 values), the “fold less active than 44 against CLK1” value is given as 5 fold.

`NC(=O)c1c(O)cc(O)c2c1oc1ccc(F)cc12` [Compound 46, 8-Fluoro-1,3-dihydroxydibenzo[b,d]furan-4-carboxamide] gave a melting point of 342 to 343 °C. Further, the IC50 in the data set on K562 cells was over 100000 nM. This compound also came in with an IC50 with KU812 cells of over 100000 nM. In addition, at HsCK1ε, the IC50 was determined as 680 nM. At HsCDK9/CyclinT, the IC50 is 920 nM. Moreover, the IC50 on HsPim-1 (setting [1]) is > 1000 nM and 1200 nM. In addition, the IC50 at HsPim-1 (setting [2]) was determined as 1200 nM. Besides, the IC50 on RnDYRK1A-kd turned out to be 690 nM. Moreover, the IC50 with MV4-11 cells was found to be 16100 ± 1600 nM.

Broadly, the melting point is the temperature, or range, at which the solid turns liquid.

Source of the values: PMC8587151, “Dibenzofuran Derivatives Inspired from Cercosporamide as Dual Inhibitors of Pim and CLK1 Kinases” (Molecules, 2021).
